How the values were obtained:
[1] = Metabolic stability in Sprague-Dawley rat microsomes assessed as degradation in absence of NADPH at 10 uM measured up to 60 mins by HPLC analysis; type: ADME, Microsome
HCT-116 [2] = experiment: Antiproliferative activity against human HCT-116 cells assessed as cell proliferation at 10 uM measured after 3 days incubation followed by incubated 5 hrs with [3H]-thymidine by 3H-thymidine incorporation assay relative to control; type: functional; conditions: HCT-116, 72 h, time 3 day, read-out: Activity
MDA-MB-231 [3] = experiment: Antiproliferative activity against human MDA-MB-231 cells assessed as cell proliferation at 10 uM measured after 3 days incubation followed by incubated 5 hrs with [3H]-thymidine by 3H-thymidine incorporation assay relative to control; type: functional; conditions: MDA-MB-231, 72 h, time 3 day, read-out: Activity
Bacillus cereus = experiment: Inhibition of Bacillus cereus phosphatidylcholine specific phospholipase C (PC-PLC BC) assessed as enzyme activity by measuring formation of resorufin fluorophore 10 uM by Amplex-Red based fluorescence assay relative to control; set-up: scale not given: the % may be the effect or the level left
[4] = Metabolic stability in Sprague-Dawley rat microsomes assessed as degradation in presence of NADPH at 10 uM measured after 1 hr by HPLC analysis; type: ADME, Microsome
MDA-MB-231 [5] = experiment: Antiproliferative activity against human MDA-MB-231 cells assessed as cell proliferation measured after 3 days incubation followed by incubated 5 hrs with [3H]-thymidine by 3H-thymidine incorporation assay; type: functional, cell-based
HCT-116 [6] = experiment: Antiproliferative activity against human HCT-116 cells assessed as cell proliferation measured after 3 days incubation followed by incubated 5 hrs with [3H]-thymidine by 3H-thymidine incorporation assay; type: functional, cell-based
[7] = Metabolic stability in Sprague-Dawley rat microsomes assessed as degradation in presence of NADPH at 10 uM measured up to 60 mins by HPLC analysis; type: ADME, Microsome

SMILES	Activity (Bacillus cereus) [%]	growth at 10 µM (HCT-116 [2]) [%]	growth at 10 µM (MDA-MB-231 [3]) [%]	also measured
CN(Cc1ccccc1Cl)c1ccc(N2CCOCC2)c(C(=O)O)c1	–	87.8	95.5	% remaining at 1 h, 10 µM ([1]; Sprague-Dawley, rat microsomes): 94%
O=C(O)c1ccc(NCc2ccccc2Cl)cc1N1CCOCC1	50.8	87.6	88	Stability [4]: Stable
O=C(NO)c1cc(NCc2ccccc2Cl)ccc1N1CCOCC1	–	2	11.7	IC50 (MDA-MB-231 [5]): 2.9 µM; IC50 (HCT-116 [6]): 4.9 µM
CN(Cc1ccccc1Cl)c1ccc(N2CCOCC2)c(C(=O)NO)c1	–	4.8	4.3	IC50 (MDA-MB-231 [5]): 1.1 µM; IC50 (HCT-116 [6]): 3.4 µM
CCOc1ccc2ccc(=O)oc2c1 [ETHOXYCOUMARIN]	–	–	–	Stability ([1]; microsomes, 1 h, 10 µM): Stable; Stability ([7]; microsomes, 1 h, 10 µM): Unstable
COc1cccc(CNc2ccc(C(=O)NO)c(N3CCOCC3)c2)c1	51.4	77.4	65.7	–
COc1ccc(CNc2ccc(C(=O)NO)c(N3CCOCC3)c2)cc1	45.5	91.5	76.9	–
COC(=O)c1ccc(NCc2ccccc2F)cc1N1CCOCC1	105	67.4	92.8	–
O=C(NO)c1ccc(NCc2ccccc2Br)cc1N1CCOCC1	54.7	54.5	30	–
O=C(O)c1cc(NCc2ccccc2Cl)ccc1N1CCOCC1	–	–	–	metabolised at 1 h, 10 µM ([7]; Sprague-Dawley, rat microsomes, read-out: Drug degradation): 17%
O=C(O)c1ccc(NCc2ccc(Cl)cc2)cc1N1CCOCC1	32.4	88.2	88.4	–
O=C(NO)c1cc(NCc2ccccc2Cl)ccc1C1CCOCC1	82.8	86.7	86.8	–
COc1cccc(CNc2ccc(C3CCOCC3)c(C(=O)NO)c2)c1	80.6	94.4	89.2	–
O=C(O)c1ccc(NCc2cccc(F)c2)cc1N1CCOCC1	84.9	93.3	92.4	–
COc1ccccc1CNc1ccc(C(=O)NO)c(N2CCOCC2)c1	46.9	83.2	70.7	–
COC(=O)c1ccc(NCc2cccc(F)c2)cc1N1CCOCC1	78.9	71	85.9	–
O=C(O)c1ccc(NCc2ccc(Br)cc2)cc1N1CCOCC1	99.1	101	99.7	–
COC(=O)c1cc(NCc2cccc(OC)c2)ccc1C1CCOCC1	85.5	62.5	83.9	–
COC(=O)c1ccc(NCc2ccccc2OC)cc1N1CCOCC1	104	55.5	73.6	–
O=C(NO)c1ccc(NCc2ccc(F)cc2)cc1N1CCOCC1	49.2	91.4	81.6	–
O=C(NO)c1ccc(NCc2cccc(Cl)c2)cc1N1CCOCC1	47.5	48.6	39.6	–
O=C(NO)c1cc(NCc2cccc(Br)c2)ccc1N1CCOCC1	–	1.9	–	IC50 (MDA-MB-231 [5]): 3.3 µM; IC50 (HCT-116 [6]): 5.8 µM
O=C(NO)c1ccc(NCc2ccc(Br)cc2)cc1N1CCOCC1	45.6	18.1	21.8	–

Further lines, with some results ahead:

Activity (Bacillus cereus) [%]	SMILES	growth at 10 µM (HCT-116 [2]) [%]	growth at 10 µM (MDA-MB-231 [3]) [%]	also measured
107	O=C(O)c1cc(NCc2ccccc2Cl)ccc1C1CCOCC1	101	111	Stability [4]: Stable
71.4	O=C(NO)c1cc(NCc2ccc(Br)cc2)ccc1C1CCOCC1	60.1	61.6	–
108	COc1ccccc1CNc1ccc(C2CCOCC2)c(C(=O)O)c1	106	100	–
92.5	O=C(NO)c1cc(NCc2ccc(Cl)cc2)ccc1C1CCOCC1	69.9	72.2	–
109	O=C(O)c1cc(NCc2cccc(Cl)c2)ccc1C1CCOCC1	103	114	–
52	COC(=O)c1cc(NCc2ccc(F)cc2)ccc1C1CCOCC1	25.3	36	–
54	O=C(O)c1cc(NCc2ccccc2)ccc1C1CCOCC1	99.8	107	–
62.4	O=C(O)c1ccc(NCc2ccc(F)cc2)cc1N1CCOCC1	91.6	94.8	–
94	O=C(NO)c1cc(NCc2ccccc2F)ccc1C1CCOCC1	98.6	88	–
109	COC(=O)c1cc(NCc2cccc(Br)c2)ccc1C1CCOCC1	40.1	58.8	–
102	O=C(O)c1cc(NCc2ccc(F)cc2)ccc1C1CCOCC1	104	107	–
80.4	COc1ccc(CNc2ccc(C3CCOCC3)c(C(=O)NO)c2)cc1	88.6	82	–
